Assay results as given in ChEMBL document CHEMBL4270577, “Synthesis, anticancer activity and molecular modeling studies of 1,2,4-triazole derivatives as EGFR inhibitors” (Eur J Med Chem, 2018).

Tests used:
Type in all cases: functional
SF-268 = assay: Cytotoxicity against human SF268 cells incubated for 48 hrs by sulforhodamine B assay; conditions: SF-268, 48 h
IGROV-1 = assay: Cytotoxicity against human IGROV1 cells incubated for 48 hrs by sulforhodamine B assay; conditions: IGROV-1, 48 h
Malme-3M = assay: Cytotoxicity against human MALME-3M cells incubated for 48 hrs by sulforhodamine B assay
A549 [1] = assay: Cell cycle arrest in human A549 cells assessed as accumulation at G2 phase at 1.4 uM after 24 hrs by propidium iodide staining based flow cytometry (reference value: 4.19%)
OVCAR-8 = assay: Cytotoxicity against human OVCAR8 cells incubated for 48 hrs by sulforhodamine B assay; conditions: OVCAR-8, 48 h
SK-MEL-28 = assay: Cytotoxicity against human SK-MEL-28 cells incubated for 48 hrs by sulforhodamine B assay; conditions: SK-MEL-28, 48 h
NCI-H522 = assay: Cytotoxicity against human NCI-H522 cells incubated for 48 hrs by sulforhodamine B assay; conditions: NCI-H522, 48 h
MDA-MB-435 = assay: Cytotoxicity against human MDA-MB-435 cells incubated for 48 hrs by sulforhodamine B assay; conditions: MDA-MB-435, 48 h
UO-31 = assay: Cytotoxicity against human UO31 cells incubated for 48 hrs by sulforhodamine B assay; conditions: UO-31, 48 h
A549 [2] = assay: Induction of apoptosis in human A549 cells assessed as viable cells at 1.4 uM after 24 hrs by Annexin V/propidium iodide staining based flow cytometric analysis (reference value: 98.03%); conditions: A549, 24 h, read-out: Activity
A549 [3] = assay: Cell cycle arrest in human A549 cells assessed as accumulation at S phase at 1.4 uM after 24 hrs by propidium iodide staining based flow cytometry (reference value: 27.9%)
UACC-257 = assay: Cytotoxicity against human UACC257 cells incubated for 48 hrs by sulforhodamine B assay; conditions: UACC-257, 48 h
NCI/ADR-RES = assay: Cytotoxicity against human NCI/ADR-RES cells incubated for 48 hrs by sulforhodamine B assay
OVCAR-5 [4] = assay: Cytotoxicity against human OVCAR5 cells incubated for 48 hrs by sulforhodamine B assay; conditions: OVCAR-5, 48 h
A549 [5] = assay: Induction of apoptosis in human A549 cells assessed as early apoptotic cells at 1.4 uM after 24 hrs by Annexin V/propidium iodide staining based flow cytometric analysis (reference value: 0.22%)
HT-29 = assay: Cytotoxicity against human HT-29 cells incubated for 48 hrs by sulforhodamine B assay; conditions: HT-29, 48 h
RXF 393 = assay: Cytotoxicity against human RXF393 cells incubated for 48 hrs by sulforhodamine B assay; conditions: RXF 393, 48 h
A549 [6] = assay: Cytotoxicity against human A549/ATCC cells incubated for 48 hrs by sulforhodamine B assay; conditions: A549, 48 h
NCI-H322M = assay: Cytotoxicity against human NCI-H322M cells incubated for 48 hrs by sulforhodamine B assay
OVCAR-5 [7] = assay: Growth inhibition of human OVCAR5 cells at 10 uM incubated for 48 hrs by sulforhodamine B assay relative to control; conditions: OVCAR-5, 48 h, read-out: GI
A549 [8] = assay: Cell cycle arrest in human A549 cells assessed as accumulation at G1 phase at 1.4 uM after 24 hrs by propidium iodide staining based flow cytometry (reference value: 67.52%)
BT-549 = assay: Cytotoxicity against human BT549 cells incubated for 48 hrs by sulforhodamine B assay; conditions: BT-549, 48 h
CCRF-CEM = assay: Cytotoxicity against human CCRF-CEM cells incubated for 48 hrs by sulforhodamine B assay
CAKI-1 = assay: Cytotoxicity against human Caki1 cells incubated for 48 hrs by sulforhodamine B assay; conditions: CAKI-1, 48 h
OVCAR-3 = assay: Cytotoxicity against human OVCAR3 cells incubated for 48 hrs by sulforhodamine B assay; conditions: OVCAR-3, 48 h
EKVX = assay: Cytotoxicity against human EKVX cells incubated for 48 hrs by sulforhodamine B assay
HCT-116 = assay: Cytotoxicity against human HCT116 cells incubated for 48 hrs by sulforhodamine B assay; conditions: HCT-116, 48 h
Hs-578T = assay: Cytotoxicity against human Hs 578T cells incubated for 48 hrs by sulforhodamine B assay
[9] = read-out: LC50 (the source's name)

COc1ccc(-c2nc3sc(-c4ccc(Cl)cc4)cn3n2)cc1
GI50 (SF-268): 48 µM
TGI (SF-268): > 50 µM
CC50 (SF-268; [9]): > 50 µM
GI50 (IGROV-1): 1.15 µM
TGI (IGROV-1): 8.13 µM
CC50 (IGROV-1; [9]): > 50 µM
GI50 (Malme-3M): 2.71 µM
TGI (Malme-3M): > 50 µM
CC50 (Malme-3M; [9]): > 50 µM
Activity (A549 [1]): 14.36%
GI50 (OVCAR-8): 2.6 µM
TGI (OVCAR-8): > 50 µM
CC50 (OVCAR-8; [9]): > 50 µM
GI50 (SK-MEL-28): > 50 µM
TGI (SK-MEL-28): > 50 µM
CC50 (SK-MEL-28; [9]): > 50 µM
GI50 (NCI-H522): 14.9 µM
TGI (NCI-H522): > 50 µM
CC50 (NCI-H522; [9]): > 50 µM
GI50 (MDA-MB-435): > 50 µM
TGI (MDA-MB-435): > 50 µM
CC50 (MDA-MB-435; [9]): > 50 µM
GI50 (UO-31): 1.19 µM
TGI (UO-31): 4.51 µM
CC50 (UO-31; [9]): 30.6 µM
viability at 1.4 µM (A549 [2]): 88%
Activity (A549 [3]): 17.34%
GI50 (UACC-257): > 50 µM
TGI (UACC-257): > 50 µM
CC50 (UACC-257; [9]): > 50 µM
GI50 (NCI/ADR-RES): 3.75 µM
TGI (NCI/ADR-RES): > 50 µM
CC50 (NCI/ADR-RES; [9]): > 50 µM
GI50 (OVCAR-5 [4]): 2.78 µM
TGI (OVCAR-5 [4]): > 50 µM
CC50 (OVCAR-5 [4]; [9]): > 50 µM
Activity (A549 [5]): 4.23%
GI50 (HT-29): 2.96 µM
TGI (HT-29): > 50 µM
CC50 (HT-29; [9]): > 50 µM
GI50 (RXF 393): 5.99 µM
TGI (RXF 393): 39.7 µM
CC50 (RXF 393; [9]): > 50 µM
GI50 (A549 [6]): 1.59 µM
TGI (A549 [6]): 5.89 µM
CC50 (A549 [6]; [9]): 46.9 µM
GI50 (NCI-H322M): 1.76 µM
TGI (NCI-H322M): > 50 µM
CC50 (NCI-H322M; [9]): > 50 µM
inhibition of growth at 10 µM (OVCAR-5 [7]): 48%
Activity (A549 [8]): 58.11%
GI50 (BT-549): 43.2 µM
TGI (BT-549): > 50 µM
CC50 (BT-549; [9]): > 50 µM
GI50 (CCRF-CEM): > 50 µM
TGI (CCRF-CEM): > 50 µM
CC50 (CCRF-CEM; [9]): > 50 µM
GI50 (CAKI-1): 1.79 µM
TGI (CAKI-1): 8.92 µM
CC50 (CAKI-1; [9]): 48.9 µM
GI50 (OVCAR-3): 1.72 µM
TGI (OVCAR-3): 7.2 µM
CC50 (OVCAR-3; [9]): > 50 µM
GI50 (EKVX): 4.82 µM
TGI (EKVX): > 50 µM
CC50 (EKVX; [9]): > 50 µM
GI50 (HCT-116): 1.21 µM
TGI (HCT-116): 3.48 µM
CC50 (HCT-116; [9]): > 50 µM
GI50 (Hs-578T): 2.31 µM
TGI (Hs-578T): > 50 µM
CC50 (Hs-578T; [9]): > 50 µM
